Among the test systems are LOX IMVI melanoma; K-562 leukemia; A549 NSCLC; OVCAR-8 ovarian; MDA-MB-231 breast; HOP-92 NSCLC; MCF7 breast; SNB-75 CNS; MALME-3M melanoma; SK-OV-3 ovarian; MDA-MB-435.
What all share (assay): NCI-60 cell line screen, 48 h

Consider 23 compounds from PubChem BioAssay (NCI).

The structures appear in SMILES notation.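 Assay format: 96-well plates, 48-hour exposure. Abbreviation: GI50, concentration required for 50% inhibition of growth. Definition used: TGI = concentration required for complete inhibition of growth.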

For the compound `Cc1cccc(-c2cc(=O)c3ccc(C)nc3[nH]2)c1`, the TGI was above 100 µM in the experiment with LOX IMVI melanoma; above 100 µM in the experiment with K-562 leukemia; above 100 µM with A549 NSCLC; above 100 µM in the experiment on OVCAR-8 ovarian; 5.87 µM with MDA-MB-231 breast; 57.7 µM in the experiment on HOP-92 NSCLC. In addition, the TGI with MCF7 breast is above 100 µM; in the experiment on SNB-75 CNS, 49.2 µM; in the experiment on MALME-3M melanoma, above 100 µM; in the experiment on SK-OV-3 ovarian it was above 100 µM.
Consider `CN(C)c1ccc(/C=C/c2sc3ccc4ccccc4c3[n+]2C)cc1`, for which the GI50 in the experiment with K-562 leukemia was 199 nM; in the experiment with OVCAR-8 ovarian it was 285 nM; with MDA-MB-231 breast, 526 nM; with HOP-92 NSCLC, 636 nM; with SK-OV-3 ovarian, 482 nM. In addition, the TGI in the experiment with K-562 leukemia is above 100 µM; in the experiment with OVCAR-8 ovarian, 1.67 µM; with MDA-MB-231 breast, 2.62 µM; in the experiment on HOP-92 NSCLC, 2.84 µM; in the experiment on SK-OV-3 ovarian it was 2.4 µM.
Turning to `C[n+]1c2ccccc2c(CNC(CCC(N)=O)C(=O)O)c2ccccc21` (stereo not given), the TGI with LOX IMVI melanoma was found to be 6.64 µM; in the experiment on K-562 leukemia it was 6.51 µM; with A549 NSCLC it was 11.8 µM; with OVCAR-8 ovarian, 7.55 µM; in the experiment with HOP-92 NSCLC, 6.96 µM; in the experiment with MCF7 breast it was 7.73 µM. The TGI with SNB-75 CNS was found to be 12.5 µM; with MDA-MB-435, 9.95 µM; in the experiment with MALME-3M melanoma, 10.6 µM; in the experiment with SK-OV-3 ovarian it was 19.7 µM.
As to `OCCSCCCSCCO`, the TGI is above 100 µM in the experiment on LOX IMVI melanoma; above 100 µM in the experiment with K-562 leukemia; above 100 µM in the experiment with A549 NSCLC; above 100 µM in the experiment with OVCAR-8 ovarian; above 100 µM in the experiment on MDA-MB-231 breast; 98.8 µM in the experiment with HOP-92 NSCLC. The TGI in the experiment with MCF7 breast, with SNB-75 CNS and in the experiment with SK-OV-3 ovarian was above 100 µM throughout.
On to `C/C(Cl)=N\OC(=O)Nc1ccccc1C(F)(F)F`, for which the TGI in the experiment on LOX IMVI melanoma was 29.2 µM; with K-562 leukemia it was 40.3 µM; with A549 NSCLC, above 100 µM; with OVCAR-8 ovarian, above 100 µM; in the experiment with MDA-MB-231 breast, 46.9 µM; in the experiment with HOP-92 NSCLC, 19 µM. Moreover, the TGI was 61.5 µM in the experiment on MCF7 breast, above 100 µM with SNB-75 CNS, 48.1 µM in the experiment with MALME-3M melanoma and above 100 µM in the experiment on SK-OV-3 ovarian.
In the case of `CN1N=C2c3ccccc3CC[C@H]2C1c1ccccc1` (stereo not given in full), the TGI is above 100 µM in the experiment on LOX IMVI melanoma; above 100 µM in the experiment with K-562 leukemia; above 100 µM with A549 NSCLC; above 100 µM with OVCAR-8 ovarian; 77.9 µM in the experiment on HOP-92 NSCLC; 72.9 µM in the experiment with MALME-3M melanoma. Moreover, in the experiment on SK-OV-3 ovarian, the TGI was above 100 µM.
For `O=C(O)c1c(CC(Cc2ccc3c(c2)CCCC3)C(=O)O)ccc2c1CCCC2` (stereo not given), the TGI in the experiment on LOX IMVI melanoma, with K-562 leukemia, with A549 NSCLC, in the experiment on OVCAR-8 ovarian, with MDA-MB-231 breast and with HOP-92 NSCLC was above 100 µM in each case. Besides, the TGI in the experiment on SNB-75 CNS, in the experiment on MDA-MB-435, in the experiment on MALME-3M melanoma and in the experiment on SK-OV-3 ovarian was above 100 µM in each case.
Take `CCOC(=O)CCC(C(=O)OCC)n1nc2ccc(Nc3c(C)[n+]([O-])c4cc(Cl)ccc4[n+]3[O-])cc2n1` (stereo not given): the TGI in the experiment with LOX IMVI melanoma, with K-562 leukemia, in the experiment with A549 NSCLC, with OVCAR-8 ovarian, in the experiment with HOP-92 NSCLC and in the experiment with MCF7 breast was above 100 µM each time. The TGI in the experiment on SNB-75 CNS, in the experiment with MDA-MB-435, in the experiment on MALME-3M melanoma and with SK-OV-3 ovarian was above 100 µM throughout.
With `O=C1CN(c2ccc(Cl)cc2)C(=O)CN1CCN1CC(=O)N(c2ccc(Cl)cc2)CC1=O`, the TGI with A549 NSCLC, in the experiment on OVCAR-8 ovarian, in the experiment on HOP-92 NSCLC, in the experiment on MCF7 breast, in the experiment with SNB-75 CNS and in the experiment on MDA-MB-435 was above 100 µM in each case. Moreover, the TGI in the experiment with MALME-3M melanoma and in the experiment with SK-OV-3 ovarian was above 100 µM each time.
For `Cc1cc(N(CCC#N)CCC#N)ccc1/C=C(\NC(=O)/C=C/c1ccccc1)NC(=O)Nc1ccc(Cl)cc1`, the TGI in the experiment on LOX IMVI melanoma, in the experiment on K-562 leukemia, in the experiment with A549 NSCLC, in the experiment on OVCAR-8 ovarian, in the experiment with HOP-92 NSCLC and with MALME-3M melanoma was above 100 µM throughout.
As to `CC1(C)OCC2OC3([C@H](O)CCO)OC(C)(C)OC3C2O1` (stereo not given in full), the TGI in the experiment with LOX IMVI melanoma, with K-562 leukemia, in the experiment with A549 NSCLC, in the experiment on OVCAR-8 ovarian, in the experiment on MDA-MB-231 breast and with HOP-92 NSCLC was above 100 µM each time. The TGI in the experiment with MCF7 breast, in the experiment with SNB-75 CNS and in the experiment with MDA-MB-435 was above 100 µM throughout.
On to `CCSc1nc2sc(C)c(C)c2c(=O)n1-c1ccc(C(=O)O)cc1`, for which the TGI in the experiment on LOX IMVI melanoma was above 100 µM; in the experiment on K-562 leukemia it was above 100 µM; in the experiment with A549 NSCLC, above 100 µM; with OVCAR-8 ovarian it was above 100 µM; with HOP-92 NSCLC, above 100 µM; with SNB-75 CNS, 70 µM. For the same compound, the TGI in the experiment on MALME-3M melanoma and with SK-OV-3 ovarian was above 100 µM each time.
`O=C(CSc1nnc(Cc2ccccc2)o1)Nc1ccc(Cl)cc1`: the TGI in the experiment on LOX IMVI melanoma, in the experiment on K-562 leukemia, in the experiment with A549 NSCLC, with OVCAR-8 ovarian, in the experiment on SNB-75 CNS and in the experiment on MALME-3M melanoma was above 100 µM throughout. For the same compound, the TGI in the experiment on SK-OV-3 ovarian was above 100 µM.
Turning to `CCCCCCOc1ccc(NC2=C(Cl)C(=O)c3cccnc3C2=O)cc1`, the TGI in the experiment on LOX IMVI melanoma was 2.81 µM; in the experiment on K-562 leukemia, above 10 µM; in the experiment on A549 NSCLC, 4.25 µM; with OVCAR-8 ovarian, 4.56 µM; in the experiment on HOP-92 NSCLC it was 3.53 µM; with MCF7 breast, 2.65 µM. Also, the TGI was 2.79 µM in the experiment on SNB-75 CNS, 3.62 µM in the experiment with MDA-MB-435, 4.85 µM in the experiment on MALME-3M melanoma and above 10 µM in the experiment with SK-OV-3 ovarian.
As for `CC12O[C@H](c3ccccc3)[C@H](c3ccccc3)N1C(=O)C1(C(=O)OCc3ccccc3)CC12` (stereo not given in full), the TGI in the experiment on LOX IMVI melanoma, in the experiment on K-562 leukemia, with A549 NSCLC, in the experiment with OVCAR-8 ovarian, with HOP-92 NSCLC and in the experiment with SNB-75 CNS was above 100 µM throughout. In addition, the TGI in the experiment on MALME-3M melanoma and with SK-OV-3 ovarian was above 100 µM throughout.
Consider `c1ccc2nc3[nH]c4ccccc4c3cc2c1`, for which the TGI in the experiment on LOX IMVI melanoma is 1.16 µM; in the experiment with K-562 leukemia, above 100 µM; in the experiment on A549 NSCLC, 9.14 µM; in the experiment on OVCAR-8 ovarian, 2.35 µM; with MDA-MB-231 breast, 2.64 µM; in the experiment on HOP-92 NSCLC it was 35.5 µM. Further, the TGI in the experiment with SNB-75 CNS was found to be 6.44 µM; in the experiment on MDA-MB-435, 1.97 µM; in the experiment on MALME-3M melanoma, 2.12 µM; in the experiment on SK-OV-3 ovarian it was 79.9 µM.
As to `Nc1nc2c(ncn2CCOC(c2ccccc2)P(=O)(O)O)c(=O)[nH]1` (stereo not given), the TGI with LOX IMVI melanoma, in the experiment with A549 NSCLC, in the experiment with OVCAR-8 ovarian, in the experiment on SNB-75 CNS, in the experiment on MALME-3M melanoma and in the experiment with SK-OV-3 ovarian was above 100 µM in each case.
On to `NC(=O)N/N=C(\Cc1nc2ccc(C(=O)c3ccccc3)cc2[nH]c1=O)C(=O)Nc1ccc(Br)cc1`, for which the TGI in the experiment with LOX IMVI melanoma, in the experiment on K-562 leukemia, with A549 NSCLC, in the experiment on OVCAR-8 ovarian, in the experiment on HOP-92 NSCLC and with SNB-75 CNS was above 100 µM throughout. The TGI in the experiment on MALME-3M melanoma and with SK-OV-3 ovarian was above 100 µM each time.
In the case of `CN(C)C(=O)CC(C(=O)O)c1c[nH]c2ccccc12` (stereo not given), the TGI in the experiment with LOX IMVI melanoma, in the experiment with K-562 leukemia, in the experiment with A549 NSCLC, with OVCAR-8 ovarian, in the experiment with SNB-75 CNS and in the experiment on MALME-3M melanoma was above 100 µM each time.
Consider `CCc1cccc(C(C)C)c1NC(=O)C(=O)C(C(=O)C(=O)OC)c1nc2ccccc2[nH]c1=O` (stereo not given), for which the TGI in the experiment on LOX IMVI melanoma, in the experiment on K-562 leukemia, with A549 NSCLC, with OVCAR-8 ovarian, in the experiment with HOP-92 NSCLC and in the experiment on SNB-75 CNS was above 100 µM in each case. The TGI with MALME-3M melanoma and with SK-OV-3 ovarian was above 100 µM in each case.
On to `O=c1ccc2ccccc2o1`, for which the TGI in the experiment on LOX IMVI melanoma, in the experiment on K-562 leukemia, with A549 NSCLC, in the experiment on OVCAR-8 ovarian, in the experiment with HOP-92 NSCLC and with SNB-75 CNS was above 100 µM each time. For the same compound, the TGI with MALME-3M melanoma and in the experiment on SK-OV-3 ovarian was above 100 µM in each case.
Regarding `CC1=C(C2=C(C)C(=O)C(=O)c3cc(C)ccc32)c2ccc(C)cc2C(=O)C1=O`, the TGI in the experiment on LOX IMVI melanoma was above 100 µM; with A549 NSCLC, 2.73 µM; in the experiment with OVCAR-8 ovarian it was 0.54 µM; with MDA-MB-231 breast, 0.91 µM; in the experiment on HOP-92 NSCLC it was 0.398 µM; with SNB-75 CNS, 0.868 µM. Also, the TGI is 0.435 µM in the experiment with MALME-3M melanoma and 3.07 µM in the experiment on SK-OV-3 ovarian.
Consider `CCOC(OCC)C(CC)[Se]c1ccccc1[N+](=O)[O-]` (stereo not given), for which the TGI in the experiment on LOX IMVI melanoma was 37.8 µM; in the experiment with K-562 leukemia it was above 38.5 µM; with A549 NSCLC, above 63.3 µM; in the experiment on OVCAR-8 ovarian it was 49.9 µM; in the experiment with MDA-MB-231 breast, above 100 µM; with HOP-92 NSCLC, above 61.1 µM. In addition, the TGI with SNB-75 CNS was above 100 µM; with MALME-3M melanoma, above 100 µM; in the experiment with SK-OV-3 ovarian, 9.44 µM.
